This is an account of results in patent US5470858A, “Derivatives of (hetero)aromatic ethers and thioethers having antihyperlipidemic activity, process for their preparation and pharmaceutical compositions containing them” (Pierrel SpA, priority 1991, dated 1995).

Where a name gives a salt, the structure may show the parent alone. Read-outs that look alike come from different tables or passages of the source.

Holding throughout (type): in vivo
In series [1] the test system is hyperlipaemic SD male rats. The experiment in a line: Hypolipemizing activity, 5 days experimental model, modified Nath diet. The settings on record: rat, oral; for change in vivo at 100 mg/kg/day / change in vivo at 300 mg/kg/day: 120 h; for Hepatic index (percent variation vs hyperlipaemic controls): index = (Liver weight/body weight) × 100. As to the method: The hypolipemizing activity of the compounds of the present invention has been evaluated in the rat using SD male animals (Charles River) of an initial weight of 150 g, housed in controlled environment at a temperature of 21°±1° C., relative humidity 60% and a 12 hours light/dark cycle.
Experimental models have been used in which the animals are rendered hiperlipaemic by "ad libitum" food administration with a modified Nath diet (Atherosclerosis 30, 1978, pag. 45-46) having the following composition: […]
hydrogenated coconut oil
In the first model the animals have been fed with this diet for 5 consecutive days, during which they received the pharmacological treatment once a day by oral route and were sacrificed 2 hours after the last administration.
At the time of the sacrifice the blood was removed, for the lipid determination, as well as the liver the weight of which was the index of a possible hepatomegaly.
By this experimental model the concentration of the serum lipids attained very high values which, in the control group, was four times the normal values for the total cholesterol and the triglycerides.
The determination of the triglycerides, of the total cholesterol and of the cholesterol associated to the HDL has been effected by means of a commercial enzymatic kit. The concentration of the cholesterol associated to VLDL+LDL has been determined by difference between total cholesterol and HDL.
The results obtained in the experimental model of the 5 days duration for some compounds representative of the invention are reported in the following table 1. The data are expressed as percent variation with respect to the hyperlipaemic controls to which carboxymethylcellulose as 0.5% in water at the dose of 10 ml/kg/day by oral route was administered. The same vehicle was used for the suspension of the tested compounds at the doses of 100 and 300 mg/kg/day by oral route.

The subject of series [2] is catalase enzyme. Put plainly: Hepatic tolerability, 15 days at high dose: catalase enzyme activity in liver (index of peroxysomes proliferation). As to conditions: rat liver, 200 mg/kg, standard; absolute values; solvent 539,8. The procedure: (§1) The hypolipemizing activity of the compounds of the present invention has been evaluated in the rat using SD male animals (Charles River) of an initial weight of 150 g, housed in controlled environment at a temperature of 21°±1° C., relative humidity 60% and a 12 hours light/dark cycle. The animals were fasted with this diet for 15 days consecutively, during which they received the pharmacological treatment once a day by oral route and were sacrificed 24 hours after the last administration. At the sacrifice time the blood was removed for the lipid determination and the liver was removed as well to be weighed and used for the evaluation of the catalase enzyme as the index of the peroxysomes proliferation and thus of hepatotoxicity. In order to evaluate the hepatic tolerability of the compounds of interest they have been administered for 15 days at a high dose (300 mg/kg/day) according to the same conditions of the previous experiment.24 hours after the last treatment the animals have been sacrificed, and the liver has been removed and stored at -20° C. up to the time of dosing the activity of the catalase enzyme (Methods of enzymatic analysis, vol.2, pag. 673, 1974 edit. H. U. Bergmeyer, Verlag Chemie International).

In series [3] the test system is liver. Put plainly: Hepatic tolerability, 15 days at high dose: hepatic index. The settings on record: rat, 200 mg/kg, standard; absolute values; solvent 5,4. As to the method: as §1
[4] abbreviates: 100 mg/kg/day, by difference between total and HDL, read-out: Cholesterol VLDL + LDL (percent variation vs hyperlipaemic controls).
Setting [5] is: 100 mg/kg/day, read-out: Cholesterol HDL (percent variation vs hyperlipaemic controls).
Setting [6] is: 100 mg/kg/day, read-out: Total Cholesterol (percent variation vs hyperlipaemic controls).
The mark [7] stands for this setting: 100 mg/kg/day, read-out: Triglycerides (percent variation vs hyperlipaemic controls).
[8] abbreviates: 300 mg/kg/day, by difference between total and HDL, read-out: Cholesterol VLDL + LDL (percent variation vs hyperlipaemic controls).
Setting [9] is: 300 mg/kg/day, read-out: Cholesterol HDL (percent variation vs hyperlipaemic controls).
The mark [10] stands for this setting: 300 mg/kg/day, read-out: Total Cholesterol (percent variation vs hyperlipaemic controls).
[11] abbreviates: 300 mg/kg/day, read-out: Triglycerides (percent variation vs hyperlipaemic controls).

On to `CC(C)COC(=O)c1ccc(OCC(O)CSc2nccn2C)cc1` (stereo not drawn) [Example 4, 1-methyl-2-[3-[(p-isobutyloxycarbonyl)-phenoxy]-2-hydroxy-propylthio]-imidazole hydrochloride], for which the change in vivo at 100 mg/kg/day is 9.2% in series [1] (setting [4]), -3.4% in series [1] (setting [5]), 7.7% in series [1] (setting [6]) and -5.9% in series [1] (setting [7]). Moreover, the change in vivo at 300 mg/kg/day in series [1] (setting [8]) is -4%; in series [1] (setting [9]), 8.2%; in series [1] (setting [10]), -2.6%; in series [1] (setting [11]), 0.2%. Further, the “Hepatic index (percent variation vs hyperlipaemic controls)” value is given as “+2,2%” in series [1] (100 mg/kg/day) and “+4,3%” in series [1] (300 mg/kg/day).

For `CC(C)COC(=O)c1ccc(OCC(CSc2nc3ccccc3o2)OC(=O)c2cccnc2)cc1` (stereo not drawn) [Example 12], the change in vivo at 100 mg/kg/day is 11.5% in series [1] (setting [4]), 12.5% in series [1] (setting [5]), 11.6% in series [1] (setting [6]) and -19% in series [1] (setting [7]). Also, the change in vivo at 300 mg/kg/day in series [1] (setting [8]) was -8.9%; in series [1] (setting [9]), 8.6%; in series [1] (setting [10]), -7.8%; in series [1] (setting [11]), -39.4%. Moreover, the results for the “Hepatic index (percent variation vs hyperlipaemic controls)” value in series [1] (100 mg/kg/day) and in series [1] (300 mg/kg/day) were -3,9% and -10,8%, respectively.

With `CC(C)COC(=O)c1ccc(OCC(O)CSc2nc3cc(Cl)ccc3s2)cc1` (stereo not drawn) [Example 10, 2-[3-[(p-isobutyloxycarbonyl)-phenoxy]-2-hydroxy-propylthio]5-chloro-benzothiazole], the change in vivo at 100 mg/kg/day in series [1] (setting [4]) is -20.4%; in series [1] (setting [5]), 5.5%; in series [1] (setting [6]) it was -18.6%; in series [1] (setting [7]), -8.5%. Moreover, the change in vivo at 300 mg/kg/day is -26.4% in series [1] (setting [8]), 17.3% in series [1] (setting [9]), -23.3% in series [1] (setting [10]) and -26.3% in series [1] (setting [11]). Moreover, the results for the “Hepatic index (percent variation vs hyperlipaemic controls)” value in series [1] (100 mg/kg/day) and in series [1] (300 mg/kg/day) were -2,2% and -0,6%, respectively.

`CC(C)COC(=O)c1ccc(OCC(O)CSc2nc3ccccc3[nH]2)cc1` (stereo not drawn) [Example 18]: the change in vivo at 100 mg/kg/day was 0.2% in series [1] (setting [4]), 3.2% in series [1] (setting [5]), 1% in series [1] (setting [6]) and -19% in series [1] (setting [7]). In addition, the change in vivo at 300 mg/kg/day in series [1] (setting [8]) is 9%; in series [1] (setting [9]), 6.5%; in series [1] (setting [10]), 9.1%; in series [1] (setting [11]), -13.1%. Further, the “Hepatic index (percent variation vs hyperlipaemic controls)” value in series [1] (100 mg/kg/day) is listed as “+3,8%”; in series [1] (300 mg/kg/day) it was “+3,9%”.

`CC(C)COC(=O)c1ccc(OCC(=O)CSc2nc3c([nH]2)c(=O)n(C)c(=O)n3C)cc1` [Example 3]: the change in vivo at 100 mg/kg/day was -1.3% in series [1] (setting [4]), 11.7% in series [1] (setting [5]), -1.1% in series [1] (setting [6]) and -6.5% in series [1] (setting [7]). Also, the change in vivo at 300 mg/kg/day is -10.7% in series [1] (setting [8]), 3.5% in series [1] (setting [9]), -10.5% in series [1] (setting [10]) and -5.8% in series [1] (setting [11]). Further, the results for the “Hepatic index (percent variation vs hyperlipaemic controls)” value in series [1] (100 mg/kg/day) and in series [1] (300 mg/kg/day) were “+3,2%” and -1,5%, respectively.

Regarding `CC(C)COC(=O)c1ccc(OCC(O)CSc2nc3cc4ccccc4cc3o2)cc1` (stereo not drawn) [Example 15], the change in vivo at 100 mg/kg/day in series [1] (setting [4]) turned out to be 17.6%; in series [1] (setting [5]) it was 0.8%; in series [1] (setting [6]), 16.5%; in series [1] (setting [7]) it was 5%. In addition, the change in vivo at 300 mg/kg/day in series [1] (setting [8]) is -9.8%; in series [1] (setting [9]), 13.4%; in series [1] (setting [10]) it was -8.2%; in series [1] (setting [11]), 5.2%. Also, the results for the “Hepatic index (percent variation vs hyperlipaemic controls)” value in series [1] (100 mg/kg/day) and in series [1] (300 mg/kg/day) were -2,6% and “+0,6%”, respectively.

Regarding `CCOC(=O)C(C)(C)Oc1ccc(Cl)cc1` [Clofibrate, reference compound], the Catalase enzyme activity in series [2] was 680,9 umoli/min/mg proteins. The “Hepatic index (Liver weight/body weight) × 100” value in series [3] is 7,0.

`CC(C)COC(=O)c1ccc(OCCCSc2nc3c(N)ncnc3n2[C@@H]2O[C@H](CO)[C@@H](O)[C@H]2O)cc1` [Example 25]: the change in vivo at 100 mg/kg/day was -10% in series [1] (setting [4]), -1.2% in series [1] (setting [5]), -9.7% in series [1] (setting [6]) and -3.3% in series [1] (setting [7]). Besides, the change in vivo at 300 mg/kg/day in series [1] (setting [8]) was -4.8%; in series [1] (setting [9]), -7.1%; in series [1] (setting [10]), -5.2%; in series [1] (setting [11]), 15.7%. For the same compound, the “Hepatic index (percent variation vs hyperlipaemic controls)” value in series [1] (100 mg/kg/day) was -1,1%; in series [1] (300 mg/kg/day), -2,8%.
